Data on 14 compounds can be found in ChEMBL document CHEMBL1159176, “Regioselective synthesis of 3-aryl substituted pyrrolidines via palladium catalyzed arylation: pharmacological evaluation for central dopaminergic and serotonergic activity” (Bioorg Med Chem Lett, 1997).

Experiment [1] has as its system Rattus norvegicus. The experiment can be described thus: Accumulation of 5-Hydroxytryptophan in limbic region in rat after injecting drug compound 65 min and NSD 1015 at a dose of 100 mg/kg administered subcutaneously, 30 min before death, tested in vivo. Type of experiment: functional, Limbic system. The conditions noted are these: route subcutaneous.
The test system of experiment [2] is Rattus norvegicus. The experiment in a line: Accumulation of Dihydroxyphenylalanine in cortical brain region in rat after injecting drug compound 65 min and NSD 1015 at a dose of 100 mg/kg administered subcutaneously, 30 min before death, tested in vivo. It counts as functional. The note with it: route subcutaneous.
Experiment [3] deals with Rattus norvegicus. The experiment in a line: Accumulation of Dihydroxyphenylalanine in striatal region in rat after injecting drug compound 65 min and NSD 1015 at a dose of 100 mg/kg administered subcutaneously, 30 min before death, tested in vivo. Type of experiment: functional. The conditions noted are these: route subcutaneous.
The test system of experiment [4] is Rattus norvegicus. The experiment in a line: Accumulation of 5-Hydroxytryptophan in cortical brain region in rat after injecting drug compound 65 min and NSD 1015 at a dose of 100 mg/kg administered subcutaneously, 30 min before death, tested in vivo. The note with it: route subcutaneous. Type of experiment: functional.
Experiment [5] concerns Rattus norvegicus. The experiment in a line: Accumulation of Dihydroxyphenylalanine in limbic region in rat after injecting drug compound 65 min and NSD 1015 at a dose of 100 mg/kg administered subcutaneously, 30 min before death, tested in vivo. Type of experiment: functional, Limbic system. The note with it: route subcutaneous.
Experiment [6] has as its target T1, Serotonin 2 (5-HT2) receptor (Rattus norvegicus, UniProt P30994+P08909+P14842). The experiment in a line: Binding affinity against [3H]ketanserin binding to 5-hydroxytryptamine 2 receptor expressed in CHO-K1 cells. It counts as cell-based.
The target of experiment [7] is T2, D(2) dopamine receptor (Rattus norvegicus, UniProt P61169). The experiment in a line: Binding affinity against [3H]U-86170 binding to Dopamine receptor D2 expressed in CHO-K1 cells. It counts as cell-based.
For experiment [8], the target named is T3, 5-hydroxytryptamine receptor 1A (Rattus norvegicus, UniProt P19327).
T3 sequence (P19327 whole entry): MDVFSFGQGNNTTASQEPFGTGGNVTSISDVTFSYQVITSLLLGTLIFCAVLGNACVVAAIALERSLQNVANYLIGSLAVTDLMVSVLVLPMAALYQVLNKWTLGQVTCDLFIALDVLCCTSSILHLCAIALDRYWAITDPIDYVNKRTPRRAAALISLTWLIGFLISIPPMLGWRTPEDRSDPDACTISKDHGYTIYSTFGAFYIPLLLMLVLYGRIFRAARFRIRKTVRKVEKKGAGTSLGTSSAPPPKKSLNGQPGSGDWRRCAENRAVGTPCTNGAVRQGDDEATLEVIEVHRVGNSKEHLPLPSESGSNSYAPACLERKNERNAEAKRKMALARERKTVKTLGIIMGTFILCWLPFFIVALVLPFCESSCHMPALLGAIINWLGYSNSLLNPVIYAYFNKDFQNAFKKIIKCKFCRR
The experiment in a line: Binding affinity against [3H]8-OH-DPAT binding to 5-hydroxytryptamine 1A receptor expressed in CHO-K1 cells. It counts as cell-based.

The test system of experiment [9] is Rattus norvegicus. The experiment in a line: Accumulation of 5-Hydroxytryptophan in striatal region in rat after injecting drug compound 65 min and NSD 1015 at a dose of 100 mg/kg administered subcutaneously, 30 min before death, tested in vivo. The conditions noted are these: route subcutaneous. It counts as functional.
Experiment [10] concerns the target T4, D(3) dopamine receptor (Rattus norvegicus, UniProt P19020). The experiment in a line: Binding affinity against [3H]spiperone binding to Dopamine receptor D3 expressed in CHO-K1 cells. Type of experiment: cell-based.
Experiment [11] deals with Rattus norvegicus. The experiment in a line: Locomotor activity, measured for 30 min after injection of drug, administered subcutaneously at 100 umol/kg. It counts as functional.
Experiment [12] concerns the target T4, D(3) dopamine receptor. The experiment in a line: Inhibitory concentration against [3H]spiperone binding to Dopamine receptor D3 expressed in CHO-K1 cells. Type of experiment: cell-based.
Experiment [13] has as its target T1, Serotonin 2 (5-HT2) receptor. The experiment in a line: Inhibitory concentration against [3H]ketanserin binding to 5-hydroxytryptamine 2 receptor expressed in CHO-K1 cells. It counts as cell-based.
Experiment [14] deals with T3, 5-hydroxytryptamine receptor 1A. The experiment can be described thus: Inhibitory concentration against [3H]8-OH-DPAT binding to 5-hydroxytryptamine 1A receptor expressed in CHO-K1 cells. Type of experiment: cell-based.
The target in experiment [15] is T2, D(2) dopamine receptor. The experiment in a line: Inhibitory concentration against [3H]U-86170 binding to Dopamine receptor D2 expressed in CHO-K1 cells. Type of experiment: cell-based.
In experiment [16] the test system is Rattus norvegicus. The experiment in a line: Accumulation of Dihydroxyphenylalanine in striatal region in rat after injecting drug compound 65 min and NSD 1015 at a dose of 0.07 mg/kg administered subcutaneously, 30 min before death, tested in vivo. It counts as functional. The conditions noted are these: route subcutaneous.
The subject of experiment [17] is Rattus norvegicus. The experiment in a line: Accumulation of Dihydroxyphenylalanine in limbic region in rat after injecting drug compound 65 min and NSD 1015 at a dose of 0.07 mg/kg administered subcutaneously, 30 min before death, tested in vivo. The conditions noted are these: route subcutaneous. Type of experiment: functional, Limbic system.

T4 sequence (P19020 whole entry): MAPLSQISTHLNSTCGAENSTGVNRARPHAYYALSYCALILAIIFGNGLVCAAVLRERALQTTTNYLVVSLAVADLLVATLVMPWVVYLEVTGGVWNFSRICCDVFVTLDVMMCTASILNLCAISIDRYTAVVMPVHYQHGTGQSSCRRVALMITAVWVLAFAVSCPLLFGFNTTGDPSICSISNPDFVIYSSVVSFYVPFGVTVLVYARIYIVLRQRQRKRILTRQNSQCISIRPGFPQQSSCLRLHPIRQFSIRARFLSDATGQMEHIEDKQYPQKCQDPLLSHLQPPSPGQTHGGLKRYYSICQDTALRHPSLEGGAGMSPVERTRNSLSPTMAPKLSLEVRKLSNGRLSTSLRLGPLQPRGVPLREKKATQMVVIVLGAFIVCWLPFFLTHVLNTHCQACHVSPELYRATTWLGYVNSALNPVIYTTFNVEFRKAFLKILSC
T2 sequence (P61169 whole entry): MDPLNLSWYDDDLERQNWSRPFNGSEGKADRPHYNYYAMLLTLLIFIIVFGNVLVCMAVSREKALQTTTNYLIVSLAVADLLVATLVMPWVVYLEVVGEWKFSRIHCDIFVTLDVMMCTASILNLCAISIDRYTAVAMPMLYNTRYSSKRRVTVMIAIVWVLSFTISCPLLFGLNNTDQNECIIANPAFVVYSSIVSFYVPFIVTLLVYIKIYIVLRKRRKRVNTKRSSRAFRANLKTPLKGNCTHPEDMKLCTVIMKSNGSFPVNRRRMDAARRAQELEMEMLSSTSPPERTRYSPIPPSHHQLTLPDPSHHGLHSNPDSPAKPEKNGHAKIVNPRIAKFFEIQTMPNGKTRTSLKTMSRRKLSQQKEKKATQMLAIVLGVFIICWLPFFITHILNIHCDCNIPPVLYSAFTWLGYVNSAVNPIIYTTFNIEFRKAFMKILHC

Broadly, the Ki is the dissociation constant of the complex between target and ligand, obtained from inhibition or displacement. On to `CCCN1CCC(c2cccc(C(F)(F)F)c2)C1` (configuration not stated), for which the Control was 97% in experiment [1]; 131% in experiment [2]; 297% in experiment [3]; 87% in experiment [4]; 205% in experiment [5]; 78% in experiment [9]. Besides, the Control in experiment [11] is on record as 89%. Moreover, the Ki in experiment [6] came out at 0.569 µM; in [7] it was 0.151 µM; in [8], 0.351 µM; in experiment [10] it was 0.035 µM.
In general, IC50 refers to the concentration at which inhibition is half-maximal. Lower therefore signals inhibition by little substance. `c1ccc2c(C3CCNC3)cccc2c1` (configuration not stated): the Control in experiment [1] stood at 94%; in experiment [2] it was 104%; in [3] it was 82%; in experiment [4], 86%; in experiment [5] it was 92%; in experiment [9], 93%. This compound also displayed a Control in experiment [11] of 129%. Also, the Ki in experiment [6] worked out at 0.04 µM; in experiment [7] it was 0.264 µM; in experiment [8], 0.095 µM. Also, the IC50 in [12] is more than 1 µM.
In the case of `CN1CCC(C2=CN=CCC2)C1` (configuration not stated), the Control in [1] was 72%; in experiment [2], 126%; in experiment [3] it was 112%; in experiment [4], 79%; in experiment [5], 112%; in experiment [9], 112%. This compound also returned a Control in experiment [11] of 47%. Further, the IC50 in [13], in [14], in experiment [15] and in [12] was more than 1 µM throughout.
On to `CCCN1CCC(c2cccc3ccccc23)C1` (configuration not stated), for which the Control in [1] is on record as 53%; in [2] it was 115%; in experiment [3], 177%; in [4] it was 57%; in experiment [5], 118%; in experiment [9] it was 54%. Also, the Control in experiment [11] worked out at 80%. Further, the Ki in [6] was 0.113 µM; in experiment [7], 0.071 µM; in experiment [8] it was 0.073 µM. This compound returned an IC50 in experiment [12] of more than 1 µM.
As for `CCCN1CCC(c2cccc(OS(=O)(=O)C(F)(F)F)c2)C1` (configuration not stated), the Control is 85% in experiment [1]; 114% in experiment [2]; 290% in experiment [3]; 98% in [4]; 211% in [5]; 86% in [9]. This compound gave a Control in experiment [11] of 93%. The compound further registered an IC50 in [13] of more than 1 µM. The Ki in experiment [7] was 0.162 µM; in experiment [8], 0.652 µM; in experiment [10] it was 0.062 µM.
Consider `O=C(CCCN1CCC(O)(c2ccc(Cl)cc2)CC1)c1ccc(F)cc1` [HALOPERIDOL], for which the figures for the Control in experiment [16], in [17] and in experiment [11] were 310%, 241% and 2%, respectively.
`CCCN1CCC(C2CCCCC2)C1` (configuration not stated): the Control in [1] came out at 102%; in experiment [2], 119%; in experiment [3] it was 95%; in experiment [4], 88%; in experiment [5], 116%; in [9], 103%. For the same compound, in experiment [11], the Control came to 87%. The IC50 in [13], in [14], in experiment [15] and in experiment [12] was more than 1 µM in each case.
With `CS(=O)(=O)c1cccc(C2CCNC2)c1` (configuration not stated), the Control was determined as 96% in experiment [1]; 104% in [2]; 91% in [3]; 98% in experiment [4]; 89% in [5]; 92% in experiment [9]. Besides, in experiment [11], the Control came to 71%. In addition, the IC50 in [13], in experiment [14], in [15] and in experiment [12] was more than 1 µM each time.
For `CCCN1CCC(c2ccccc2)C1` (configuration not stated), the Control in experiment [1] was 92%; in [2] it was 130%; in experiment [3], 66%; in experiment [4], 83%; in experiment [5], 96%; in experiment [9], 81%. In experiment [11], this compound showed a Control of 115%. For the same compound, in experiment [13], the half-inhibitory concentration (IC50) is more than 1 µM. The values for the Ki in [7], in [8] and in experiment [10] were 0.625 µM, 0.453 µM and more than 2.5 µM, respectively.
With `CCCN1CCC(c2cccc(O)c2)C1` (configuration not stated), the Control in [1] was determined as 74%; in [2], 88%; in experiment [3], 153%; in experiment [4], 79%; in experiment [5] it was 113%; in experiment [9], 68%. The Control in [11] was found to be 20%. For the same compound, the IC50 in experiment [13] was more than 1 µM. Moreover, the Ki in experiment [7] was determined as 0.068 µM; in experiment [8] it was 0.201 µM; in [10] it was 0.052 µM.
On to `CCCN1CCC(c2cccnc2)C1` (configuration not stated), for which the Control in [1] was 90%; in [2], 132%; in experiment [3] it was 108%; in experiment [4], 94%; in experiment [5], 111%; in experiment [9] it was 104%. Besides, the Control in [11] came to 15%. Also, the IC50 in experiment [13], in experiment [14], in experiment [15] and in experiment [12] was more than 1 µM throughout.
Take `CCCN1CCC[C@@H](c2cccc(S(C)(=O)=O)c2)C1`: the Control in [1] is listed as 83%; in experiment [2], 165%; in [3], 317%; in experiment [4], 78%; in [5], 228%; in [9] it was 85%. Besides, in experiment [11], the Control turned out to be 135%.
`CCCN1CCC(c2cccc(S(C)(=O)=O)c2)C1` (configuration not stated): the Control amounted to 97% in [1]; 143% in [2]; 256% in experiment [3]; 92% in experiment [4]; 207% in experiment [5]; 78% in [9]. Moreover, in [11], the Control is 126%. For the same compound, the IC50 in [13], in experiment [15] and in [12] was more than 1 µM each time. Besides, the affinity in [8] corresponds to a Ki of 0.807 µM.
In the case of `FC(F)(F)c1cccc(C2CCNC2)c1` (configuration not stated), the Control in experiment [1] was found to be 70%; in experiment [2], 72%; in [3] it was 163%; in experiment [4] it was 70%; in [5], 113%; in [9], 82%. In experiment [11], this compound returned a Control of 74%. Also, the Ki was found to be 0.227 µM in [6], 0.1 µM in experiment [7], 0.174 µM in experiment [8] and 0.633 µM in [10].
